Data taken from publication PMC11013143, “4-Chloroisocoumarins as Chlamydial Protease Inhibitors and Anti-Chlamydial Agents” (Molecules, 2024).

Assays:
CtHtrA = molecular target: T1, CtHtrA (Chlamydia trachomatis serovar D, UniProt P18584); test: CtHtrA protease inhibition assay; assay type: biochemical; settings: for Relative Potency against CtHtrA: [IC50 of control]/[IC50 test compound]; for IC50: IC50 against CtHtrA; for Relative Selectivity: (relative CtHtrA potency)/(relative HLE potency)
T1 construct: made in house; host or cells: E. coli BL21(DE3), pET22b
T1 sequence (P18584 17-497): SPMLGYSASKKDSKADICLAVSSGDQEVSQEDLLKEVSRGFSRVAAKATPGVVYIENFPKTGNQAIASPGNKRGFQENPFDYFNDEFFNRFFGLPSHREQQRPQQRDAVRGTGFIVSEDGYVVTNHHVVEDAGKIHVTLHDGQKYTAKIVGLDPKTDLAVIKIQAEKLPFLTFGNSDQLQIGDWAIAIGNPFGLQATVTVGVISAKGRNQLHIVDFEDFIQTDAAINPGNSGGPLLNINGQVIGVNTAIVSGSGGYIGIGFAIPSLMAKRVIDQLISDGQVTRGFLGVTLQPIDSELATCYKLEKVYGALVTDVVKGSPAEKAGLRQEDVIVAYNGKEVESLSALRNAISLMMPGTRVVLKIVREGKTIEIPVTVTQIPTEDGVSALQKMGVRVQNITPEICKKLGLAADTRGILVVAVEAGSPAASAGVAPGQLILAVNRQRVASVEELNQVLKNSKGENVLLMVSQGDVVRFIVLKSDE
Protocol: The inhibitory activity of compounds 2a–g against CtHtrA was evaluated. […] As these compounds are reportedly covalent inhibitors of serine proteases, a true IC50 is unable to be calculated. Instead, the residual activity of the protease is monitored over time in response to a range of compound concentrations, and an IC50 value is interpolated from a dose–response curve (see Figures S2–S4 and Tables S1 and S2). This IC50 value is then compared to a positive control (JO146 was used for 2a–g, and 2g was used for 6a–h), giving the ‘relative potency’. This is the established method for assessing CtHtrA inhibitory potency. […] This effect may be due to depth restrictions within the S1 subpocket, as kinetic studies on the rates of protease inhibition in HLE were reduced by larger C-3 alkoxy substituents. Chain branching (iso-propyl and sec-butyl substituents) increased the activity, resulting in a 1.4-fold increase for 2e over 2b and a 2.8-fold improvement for 2g over 2c.
CtHtrA was expressed using an procedure adapted from the literature. Recombinant E. coli BL21(DE3) pET22b was grown in LB media containing 100 ug/mL ampicillin to an OD600 of 0.5-0.6 in 5 × 400 mL batches at 37 °C. Isopropyl β-D-1-thioglactopyranoside (1 M, 400 µL, 1 mM final concentration) was added to each flask and incubated at 30 °C with shaking at 150 rpm for an additional 2.5 h. The culture was centrifuged at 4000× g for 15 min at 4 °C, and the cell pellet was harvested and resuspended in lysis buffer (50 mM phosphate, 10 mM imidazole, 500 mM NaCl, 0.1% Triton X-100, 10% glycerol). Lysozyme was added to the suspended cells and was sonicated in 15 cycles of 15 s, with one minute between cycles while maintaining 4 °C, and then centrifuged at 8000× g for 20 min to remove any debris, retaining the supernatant for protein purification.
TALON® metal affinity resin (Takara cat no. 635652, 5 mL) was added to each lysate tube and washed sequentially with lysis buffer (2 × 45 mL) and stringency buffer (4 × 45 mL) and then eluted with elution buffer (2 × 5 mL), allowing incubations at 4 °C for 20 min per wash, and centrifuging at 2500× g and 4 °C between washes to pellet the resin. The eluates were dialyzed in Tris buffer (pH 7.0, 50 mM, 4 L) with magnesium chloride (20 mM) at 4 °C five times over 24 h, with a minimum of three hours per dialysis change. Protein expression and isolation were confirmed with SDS-PAGE Coomassie stained gel, which was examined for the band at the correct size, and a BCA assay to confirm purified protein concentration prior to use.
CtHtrA was added to 25 wells in a black 96-well plate (40–80 µL, 10 µL increments), to which Tris-HCl buffer (50 mM, pH 7.0 with 20 mM MgCl2) was added to bring the total volume to 90 µL for 10 wells and 85 µL for the remaining 15. JO146 (10 µM, 5 µL) was added to 5 wells and JO146 (1 µM, 5 µL) was added to another 5 wells, with DMSO (5 µL) being added to the remaining 5 as a control. The plate was incubated at 37 °C for 10 min before substrate (MCA-ENLHLPLPIIFK-DNP, 10 µL, 1 mg/mL, 50% isopropanol in buffer) was added and analyzed in a TECAN Infinite Pro M200 plate reader with an excitation wavelength of 340 nm and fluorescence measured at 405 nm with four reads per well at 60 s intervals. A minimum volume of CtHtrA granting a fluorescence change of 300 min^−1 was used for subsequent assay.
The determined appropriate volume of CtHtrA in buffer was added to a 96-well non-transparent black plate and diluted to 85 µL with buffer solution. Drug or control (5 µL) at a maximum of 20% DMSO/80% buffer was added to the appropriate well with DMSO controls, and the plate was incubated for 10 min to allow activation by the protein. MCA-ENLHLPLPIIFK-DNP (Mimotopes, Australia, 1 mg/mL, 10 µL) was added and immediately monitored on a TECAN M200 Infinite plate reader at 37 °C every 60 s for 30 min, using the same wavelengths as for the activity evaluation. […]

C. trachomatis = test: Chlamydia trachomatis growth inhibition assay in HEp-2 host cells; assay type: cell-based; settings: 62.5 µM; for anti-chlamydial activity against C. trachomatis: 30 h post infection, HEp-2 host cells
Protocol: The workflow for the evaluation of chlamydial growth inhibition is described in the supplementary information (Figure S6). Briefly, HEp-2 cells were seeded in a 96-well plate and grown for 24 h; they were then infected with a fixed quantity of C. trachomatis. The infection was propagated for 4 h, and then a mixture of test compound and cycloheximide was added and the plate was incubated for a further 26 h (30 h post infection). The cells were fixed with methanol and then stained with fluorescent antibodies to visualize chlamydial inclusions, and the growth was measured using inclusion counts relative to vehicle controls.
HEp-2 cells were grown until confluent in a T-75 flask with DMEM (containing 10% FCS, gentamycin (0.05 mg/mL), streptomycin (0.1 mg/mL) and glutamine (Sigma-Aldrich Cat No. G7513, 4 mM); they were then harvested with trypsin, and the cell density was determined with a haemocytometer. Cells were diluted to 1 × 10^5 cells/mL, and 200 µL was dispensed to each well in a 96-well plate and then incubated for 24 h at 5% CO2 at 37 °C.
The supernatant was removed, and 100 µL of the respective chlamydia species in media (100,000 IFU/mL) was added, giving an MOI of 0.5. The plate was sealed and centrifuged at 500× g/28 °C for 30 min and then incubated for a further 3.5 h at 37 °C with 5% CO2. The supernatant was removed, and 100 µL of cycloheximide in DMEM (1 µg/mL) was added in addition to 100 µL of drug stock solution to each respective well with DMSO and media negative controls and also azithromycin positive control. The plate was incubated for a further 26 h.
The supernatant was removed, and wells were washed with PBS (2 × 150 µL) and then fixed in methanol for eight minutes. The methanol was removed and washed with additional PBS (2 × 150 µL) and stored at 4 °C with 100 µL PBS per well and then stained and analyzed using fluorescence microscopy, which is outlined below.
Cells in fixed plates were permeabilized with 0.5% Triton X-100 in PBS for 15 min and then blocked with 1% BSA in PBS for 45 min. Anti-HtrA polyclonal antibody (sera) (1:600) (in-house), anti-mouse tubulin (Sigma-Aldrich Cat no. T-5168, 1:3000) and DAPI (125 ng/mL) in PBS were added to each well (70 µL) and then gently shaken at room temperature while shielding it from light for 45 min. The primary antibodies were removed, and the wells were washed with PBS (4 × 150 µL). Secondary antibodies (goat anti-rabbit Alexafluor 488, Thermo Fisher Cat No. A-11008 and goat anti-mouse Alexafluor 568 (Thermo Fisher Cat No. A-11004)) in PBS (70 µL, 1:600 respectively) were added and the wells were gently shaken at room temperature while shielding them from light for 45 min. The antibodies were removed, and the wells were washed with PBS (5 × 150 µL); cells were then stored with PBS (100 µL per well) at 4 °C pending analysis.
Plates were analyzed on an INcell Analyzer 2200 (Cytiva Life Sciences, Marlborough, MA, USA) using both laser autofocus (10%) and software autofocus modes, with ten random images per well covering a minimum of 80% of the well at 10x magnification. Non-morphologically affected inclusions were counted using a macro in ImageJ (v1.54f), and MIC was defined as being one two-fold dilution more concentrated than MICTP (where MICTP is defined as the lowest concentration to produce ≥90% morphologically abnormal inclusions) relative to solvent controls.

[1] = molecular target: T2, Human Leukocyte Elastase (HLE) (Homo sapiens, UniProt P08246); design: method as in PMID 3910097; settings: cited from earlier work
T2 construct: purchased Athens Research and Technology 16-15-051200
T2 sequence (P08246 30-247 limits assumed): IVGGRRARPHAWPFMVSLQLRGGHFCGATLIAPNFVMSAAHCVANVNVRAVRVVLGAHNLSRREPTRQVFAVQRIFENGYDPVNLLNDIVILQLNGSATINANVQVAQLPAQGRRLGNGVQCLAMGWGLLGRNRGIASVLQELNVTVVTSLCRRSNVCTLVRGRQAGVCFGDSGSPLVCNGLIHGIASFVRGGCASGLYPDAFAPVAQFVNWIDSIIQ

[2] = molecular target: T2, Human Leukocyte Elastase (HLE); test: HLE protease inhibition assay; assay type: biochemical; settings: for IC50: Table S1, variable slope four parameter fit, read-out: IC50 against HLE; for Relative Potency against HLE: [IC50 of JO146]/[IC50 test compound]
Protocol: Elastase was purchased from Athens Research and Technology (Cat No. 16-15-051200). Elastase (100 µg) was dissolved in Tris buffer (100 mM Tris, 20 mM CaCl2, pH 8.1, 3.14 mL), giving a concentration of 1.117 µM, and 25 µL was added to each well containing the respective inhibitor. The plate was incubated at 37 °C for 15 min.
N-Suc-AAA-pNA (Sigma Aldrich, Bayswater, Australia, S4760, 100 µL, 1 mg/mL, […]) was added to each well, and the absorbance was monitored every six minutes at 405 nm. The rate of change of absorbance was used as a comparison to controls to determine the % inhibition of protein in Microsoft Excel^TM (v2402), and these values were exported to GraphPad Prism (v8.0.1) for IC50 calculation.

[3] = Table S2, Batch 1, control JO146
[4] = Table S2, Batch 2, control JO146

Row | SMILES | IC50 [2] | Relative Potency against HLE [2] | Relative Selectivity (CtHtrA) | IC50 (CtHtrA; [3]) | Relative Potency against CtHtrA (CtHtrA; control JO146) | further results
1 | CCC(C)Oc1oc(=O)c2cc(Br)ccc2c1Cl (racemic) [Compound 6f, (±)-7-Bromo-3-sec-butoxy-4-chloro-isocoumarin] | – | – | – | – | – | Relative Potency against CtHtrA (CtHtrA; control 2g): 0.057; anti-chlamydial activity against C. trachomatis (C. trachomatis): abolished observable activity
2 | CCC(C)Oc1oc(=O)c2cc(Cl)ccc2c1Cl (racemic) [Compound 6g, (±)-3-sec-Butoxy-4,7-dichloro-isocoumarin] | – | – | – | – | – | IC50 (CtHtrA; Table S2, Batch 5, control 2g): 71.8 µM; Relative Potency against CtHtrA (CtHtrA; control 2g): 0.390; anti-chlamydial activity against C. trachomatis (C. trachomatis): did not significantly affect the efficacy of 2g; statistical significance of anti-chlamydial activity (C. trachomatis; relative to solvent controls): statistically significant anti-chlamydial activity
3 | O=c1oc(Cl)c(Cl)c2ccccc12 [3,4-dichloroisocoumarin] | – | – | – | – | – | molecular turnover against HLE [1]: 3.1
4 | CCOc1oc(=O)c2ccccc2c1Cl [Compound 2b, 3-Ethoxy-4-chloroisocoumarin] | 12.3 µM | 0.0664 | 56.4 | 19.1 µM | 3.73 | –
5 | CCCOc1oc(=O)c2ccccc2c1Cl [Compound 2c, 3-Propoxy-4-chloroisocoumarin] | 2.53 µM | 0.323 | 6.92 | 32 µM | 2.23 | –
6 | CCCCOc1oc(=O)c2ccccc2c1Cl [Compound 2d, 3-Butoxy-4-chloroisocoumarin] | 2.64 µM | 0.310 | 5.08 | 45.5 µM | 1.57 | –
7 | CC(C)Oc1oc(=O)c2ccccc2c1Cl [Compound 2e, 3-iso-Propoxy-4-chloroisocoumarin] | 1.95 µM | 0.419 | 12.7 | – | 5.32 | fold increase in CtHtrA inhibitory activity (CtHtrA; 2e over 2b): 1.4 fold; IC50 (CtHtrA; [4]): 11.3 µM
8 | CC(C)COc1oc(=O)c2ccccc2c1Cl [Compound 2f, 3-iso-Butoxy-4-chloroisocoumarin] | 2.22 µM | 0.368 | 4.08 | – | 1.50 | IC50 (CtHtrA; [4]): 40 µM
9 | O=c1oc(Cl)cc2ccccc12 [Compound 3-choro-] | – | – | – | – | – | molecular turnover against HLE [1]: 15
